Assay: excess molar enthalpy (molar enthalpy of mixing); xn = mol fraction of the nth substance listed
Details: Liquid

FC(F)(F)C(F)(F)C(F)(F)C(F)(F)C(F)(F)C(F)(F)F [perfluorohexane] + CCCCOC
Details | excess molar enthalpy [kJ/mol]
298.15 K, x1 = 1 | 0

FC(F)(F)C(F)(F)C(F)(F)C(F)(F)C(F)(F)C(F)(F)F [perfluorohexane] + CCCOCCC
Details | excess molar enthalpy [kJ/mol]
298.15 K, x1 = 1 | 0

FC(F)(F)C(F)(F)C(F)(F)C(F)(F)C(F)(F)C(F)(F)F [perfluorohexane] + CCCCOCC
Details | excess molar enthalpy [kJ/mol]
298.15 K, x1 = 1 | 0

FC(F)(F)C(F)(F)C(F)(F)C(F)(F)C(F)(F)C(F)(F)F [perfluorohexane] + CCOCC
Details | excess molar enthalpy [kJ/mol]
293.15 K, x1 = 1 | 0

CCCOCCC [dipropyl ether] + FC(F)(F)C(F)(F)C(F)(F)C(F)(F)C(F)(F)C(F)(F)F
298.15 K
Details | excess molar enthalpy [kJ/mol]
x2 = 0 | 0
x2 = 0.05 | 0.572
x2 = 0.1 | 1.04
x2 = 0.15 | 1.42
x2 = 0.2 | 1.73
x2 = 0.25 | 1.97
x2 = 0.3 | 2.15
x2 = 0.35 | 2.29
x2 = 0.4 | 2.38
x2 = 0.45 | 2.44
x2 = 0.5 | 2.45
x2 = 0.55 | 2.44
x2 = 0.6 | 2.38
x2 = 0.65 | 2.29
x2 = 0.7 | 2.15
x2 = 0.75 | 1.96
x2 = 0.8 | 1.72
x2 = 0.85 | 1.41
x2 = 0.9 | 1.03
x2 = 0.95 | 0.565

CCCCOCC [butyl ethyl ether] + FC(F)(F)C(F)(F)C(F)(F)C(F)(F)C(F)(F)C(F)(F)F
298.15 K
Details | excess molar enthalpy [kJ/mol]
x2 = 0 | 0
x2 = 0.05 | 0.611
x2 = 0.1 | 1.08
x2 = 0.15 | 1.44
x2 = 0.2 | 1.72
x2 = 0.25 | 1.92
x2 = 0.3 | 2.07
x2 = 0.35 | 2.17
x2 = 0.4 | 2.24
x2 = 0.45 | 2.28
x2 = 0.5 | 2.3
x2 = 0.55 | 2.28
x2 = 0.6 | 2.24
x2 = 0.65 | 2.16
x2 = 0.7 | 2.04
x2 = 0.75 | 1.88
x2 = 0.8 | 1.66
x2 = 0.85 | 1.37
x2 = 0.9 | 1
x2 = 0.95 | 0.551

CCOCC [diethyl ether] + FC(F)(F)C(F)(F)C(F)(F)C(F)(F)C(F)(F)C(F)(F)F
293.15 K
Details | excess molar enthalpy [kJ/mol]
x2 = 0 | 0
x2 = 0.05 | 0.62
x2 = 0.1 | 1.09
x2 = 0.15 | 1.44
x2 = 0.2 | 1.71
x2 = 0.25 | 1.9
x2 = 0.3 | 2.05
x2 = 0.35 | 2.16
x2 = 0.4 | 2.24
x2 = 0.45 | 2.29
x2 = 0.5 | 2.3
x2 = 0.55 | 2.29
x2 = 0.6 | 2.23
x2 = 0.65 | 2.13
x2 = 0.7 | 1.99
x2 = 0.75 | 1.79
x2 = 0.8 | 1.53
x2 = 0.85 | 1.22
x2 = 0.9 | 0.859
x2 = 0.95 | 0.448

FC(F)(F)C(F)(F)C(F)(F)C(F)(F)C(F)(F)C(F)(F)F [perfluorohexane] + CCCCOCCCC
298.15 K
Details | excess molar enthalpy [kJ/mol]
x1 = 0.05 | 0.603
x1 = 0.1 | 1.07
x1 = 0.15 | 1.42
x1 = 0.2 | 1.67
x1 = 0.25 | 1.85
x1 = 0.3 | 1.98
x1 = 0.35 | 2.07
x1 = 0.4 | 2.12
x1 = 0.45 | 2.15
x1 = 0.5 | 2.16
x1 = 0.55 | 2.15
x1 = 0.6 | 2.12
x1 = 0.65 | 2.07
x1 = 0.7 | 1.98
x1 = 0.75 | 1.86
x1 = 0.8 | 1.68
x1 = 0.85 | 1.42
x1 = 0.9 | 1.07
x1 = 0.95 | 0.609
x1 = 1 | 0

CCCCOC [butyl methyl ether] + FC(F)(F)C(F)(F)C(F)(F)C(F)(F)C(F)(F)C(F)(F)F
298.15 K
Details | excess molar enthalpy [kJ/mol]
x2 = 0 | 0
x2 = 0.05 | 0.618
x2 = 0.1 | 1.09
x2 = 0.15 | 1.44
x2 = 0.2 | 1.7
x2 = 0.25 | 1.89
x2 = 0.3 | 2.03
x2 = 0.35 | 2.13
x2 = 0.4 | 2.2
x2 = 0.45 | 2.24
x2 = 0.5 | 2.25
x2 = 0.55 | 2.24
x2 = 0.6 | 2.19
x2 = 0.65 | 2.11
x2 = 0.7 | 1.99
x2 = 0.75 | 1.81
x2 = 0.8 | 1.59
x2 = 0.85 | 1.29
x2 = 0.9 | 0.937
x2 = 0.95 | 0.506

Source: the NIST ThermoML archive (doi:10.1016/j.fluid.2008.04.021)
